Test results published in patent US20240389589A1, “CORROSION INHIBITORS FOR NITROGEN INHIBITOR FORMULATION” (Verdesian Life Sciences U.S., LLC, priority 2021, published 2024).

Assays:
[1] = Nitrapyrin volatilization: weight loss on a heated balance at 100° C.; type: physicochemical; details: for weight as a percent of original weight: heated balance 100° C.; for nitrapyrin sulfolane volatility ratio: nitrapyrin without solvent vs. solvent alone
Protocol: Three materials were placed on a heated balance at […] and had their weights observed every minute for 10 minutes, as a percent of original weight. The materials were: • 1. pure nitrapyrin, • 2. 25% w/w solution of nitrapyrin in sulfolane, and • 3. solution of 25% nitrapyrin salt with equimolar (on acid basis) amount of maleic-itaconic copolymer, also in sulfolane (nitrapyrin/polyanionic polymer salt).
Therefore, the disclosed nitrapyrin-organic acid ionic mixtures substantially reduce the volatilization of nitrapyrin.
Tests were run to determine the relative volatility of the nitrapyrin solution without polyanionic polymer.

[2] = Formation of solutions of nitrapyrin salts at 20% w/w nitrapyrin and grading of solutions; type: physicochemical; parameters: key: 5: Fully dissolved; 4: Mostly dissolved; 3: Mostly not dissolved; 2: Not dissolved; 1: Additional precipitate
Source text: Example 2. Formation of Solutions of Nitrapyrin Salts and Grading of Solutions

[3] = solvent A dipropylene glycol, 20% w/w nitrapyrin
[4] = solvent B PT700, 20% w/w nitrapyrin
[5] = solvent C PT250, 20% w/w nitrapyrin
[6] = solvent D triethylene glycol, 20% w/w nitrapyrin
[7] = solvent E tripropylene glycol, 20% w/w nitrapyrin
[8] = solvent F propylene carbonate, 20% w/w nitrapyrin
[9] = solvent G triacetin, 20% w/w nitrapyrin
[10] = solvent H Agnique AMD810, 20% w/w nitrapyrin
[11] = solvent I Agnique AMD3L, 20% w/w nitrapyrin
[12] = solvent J Rhodiasolv ADMA10, 20% w/w nitrapyrin
[13] = solvent K Rhodiasolv ADMA810, 20% w/w nitrapyrin
[14] = solvent L Rhodiasolv PolarClean, 20% w/w nitrapyrin

Clc1cccc(C(Cl)(Cl)Cl)n1 [nitrapyrin without solvent, nitrapyrin]
weight as a percent of original weight ([1]; experiment time 0 min): 100.00% | weight as a percent of original weight ([1]; experiment time 1 min): 99.20% | weight as a percent of original weight ([1]; experiment time 2 min): 98.56% | weight as a percent of original weight ([1]; experiment time 3 min): 97.92% | weight as a percent of original weight ([1]; experiment time 4 min): 96.00% | weight as a percent of original weight ([1]; experiment time 5 min): 94.87% | weight as a percent of original weight ([1]; experiment time 6 min): 93.75% | weight as a percent of original weight ([1]; experiment time 7 min): 92.63% | weight as a percent of original weight ([1]; experiment time 8 min): 90.87% | weight as a percent of original weight ([1]; experiment time 9 min): 89.90% | weight as a percent of original weight ([1]; experiment time 10 min): 89.10% | nitrapyrin sulfolane volatility ratio ([1]; Delta 3-10): 401% | nitrapyrin sulfolane volatility ratio ([1]; Delta 4-10): 392% | nitrapyrin sulfolane volatility ratio ([1]; Delta 5-10): 393%

O=C(O)CCC(=O)O [succinic]
grade of solution [2, 3]: 3 | grade of solution [2, 4]: 4 | grade of solution [2, 5]: 1 | grade of solution [2, 6]: 2 | grade of solution [2, 7]: 3 | grade of solution [2, 8]: 3 | grade of solution [2, 9]: 2 | grade of solution [2, 10]: 5 | grade of solution [2, 11]: 5 | grade of solution [2, 12]: 5 | grade of solution [2, 13]: 5 | grade of solution [2, 14]: 5

O=C(O)C(O)C(O)C(=O)O (centres unmarked) [tartaric]
grade of solution [2, 3]: 2 | grade of solution [2, 4]: 2 | grade of solution [2, 5]: 1 | grade of solution [2, 6]: 1 | grade of solution [2, 7]: 2 | grade of solution [2, 8]: 2 | grade of solution [2, 9]: 2 | grade of solution [2, 10]: 5 | grade of solution [2, 11]: 5 | grade of solution [2, 12]: 5 | grade of solution [2, 13]: 5 | grade of solution [2, 14]: 5

adipic
grade of solution [2, 3]: 2 | grade of solution [2, 4]: 3 | grade of solution [2, 5]: 1 | grade of solution [2, 6]: 3 | grade of solution [2, 7]: 4 | grade of solution [2, 8]: 3 | grade of solution [2, 9]: 3 | grade of solution [2, 10]: 5 | grade of solution [2, 11]: 5 | grade of solution [2, 12]: 5 | grade of solution [2, 13]: 5 | grade of solution [2, 14]: 5

malic
grade of solution [2, 3]: 2 | grade of solution [2, 4]: 4 | grade of solution [2, 5]: 1 | grade of solution [2, 6]: 2 | grade of solution [2, 7]: 2 | grade of solution [2, 8]: 3 | grade of solution [2, 9]: 3 | grade of solution [2, 10]: 5 | grade of solution [2, 11]: 5 | grade of solution [2, 12]: 5 | grade of solution [2, 13]: 5 | grade of solution [2, 14]: 5
